Publication doi:10.1101/2025.03.24.644576v1 (biorxiv, 2025)

Assays:
[1] = molecular target: T1, AmRDL receptor (Apis mellifera, UniProt A0A8U0Y4W2, F191A); test: two-electrode voltage clamp, Xenopus oocytes; assay type: cell-based
T1 sequence (A0A8U0Y4W2 19-476 F191A): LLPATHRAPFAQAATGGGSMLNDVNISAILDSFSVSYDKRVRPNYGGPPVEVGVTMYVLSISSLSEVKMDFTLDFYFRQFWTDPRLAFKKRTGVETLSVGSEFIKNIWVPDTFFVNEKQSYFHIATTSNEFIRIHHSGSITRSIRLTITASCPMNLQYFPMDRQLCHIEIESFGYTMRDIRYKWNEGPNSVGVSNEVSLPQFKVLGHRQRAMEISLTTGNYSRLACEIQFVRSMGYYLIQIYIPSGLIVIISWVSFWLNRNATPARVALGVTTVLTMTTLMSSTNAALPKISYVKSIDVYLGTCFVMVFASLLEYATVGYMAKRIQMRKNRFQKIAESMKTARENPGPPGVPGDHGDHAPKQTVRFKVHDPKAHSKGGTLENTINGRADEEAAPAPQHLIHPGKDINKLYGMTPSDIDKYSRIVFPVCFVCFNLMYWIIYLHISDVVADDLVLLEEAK

[2] = molecular target: T2, AmRDL receptor (Apis mellifera, UniProt A0A8U0Y4W2); test: two-electrode voltage clamp, Xenopus oocytes; assay type: cell-based
T2 sequence (A0A8U0Y4W2 19-476): T1 sequence (A0A8U0Y4W2 19-476 F191A)

`NCCCC(=O)O` [GABA] was tested. Which EC50 [1] did it give?
The EC50 was 1000 µM.

And the EC50 [2]?
Its EC50 is 10 µM.
